According to patent US11884669B1, “Pyrrolo[3,2-c][1,7]naphthyridine-2-carboxylic acid compounds as CK2 inhibitors” (KING FAISAL UNIVERSITY, priority 2023, dated 2024):

Tests used:
PC3 (prostate) = assay: In vitro cytotoxic activity MTT assay, PC3; assay type: cell-based; details: Homo sapiens, 96 hours exposure, read-out: IC50, 50% inhibition of cell proliferation
Procedure: (§1) Compounds 1-16 were screened for their in vitro cytotoxic activity utilizing a 3-(4,5-dimethyl-thiazol-2-yl)-2,5-diphenyltetrazolium bromide (MTT) assay against selected cancer human cell lines consisting of PC3 (prostate), HCT116 (colon), A375 (melanoma), H1299 (lung), MIAPaCa-2 (pancreas), HL60 (leukemia), MCF7 (breast), MDA-MB-231 (breast) (T. Mosmann, J. Immunol. Meth., 1983, 65, 55-63). The cells were cultured at 37° C. in RMPI1640 medium supplemented with 10% fetal bovine serum, 50 IU/mL penicillin, and 50 μg/mL streptomycin in a 5% CO2 incubator. All cells were sub-cultured 3 times/week by trypsinisation. Viable cells were seeded and allowed to adhere for 12 h before a test drug was added in 96-well plates at an initial density of 1.0×10^5 cells/mL. Tumor cell lines were separately exposed to various concentrations of the tested compounds followed by incubation at a temperature of 37° C. during 96 h inside a medium of fresh RMPI 1640. Cells were subsequently incubated at 37° C. using MTT at 0.5 mg/mL during 4 h. After removal of supernatant, formazan crystals were dissolved in isopropanol and the optical density was measured at 570 nm. CX-4945 was used as a positive control.

MCF7 (breast) = assay: In vitro cytotoxic activity MTT assay, MCF7; assay type: cell-based; details: Homo sapiens, 96 hours exposure, read-out: IC50, 50% inhibition of cell proliferation
Procedure: as §1

MIAPaCa-2 (pancreas) = assay: In vitro cytotoxic activity MTT assay, MIAPaCa-2; assay type: cell-based; details: Homo sapiens, MIA PaCa-2, 96 hours exposure, read-out: IC50, 50% inhibition of cell proliferation
Procedure: as §1

A375 (melanoma) = assay: In vitro cytotoxic activity MTT assay, A375; assay type: cell-based; details: Homo sapiens, A-375, 96 hours exposure, read-out: IC50, 50% inhibition of cell proliferation
Procedure: as §1

[1] = target: T1, recombinant human CK2 (RRββ-holoenzyme) (Homo sapiens, UniProt P68400); assay: CK2 Kinase Assay (33P-ATP, filter plate); assay type: biochemical; details: final ATP concentration 15 μM, 10 min at 30° C.; read-out: protein kinase CK2 IC50
T1 construct: purchased Millipore
Procedure: CK2 Kinase Assay was conducted using the protocol as described in Pierre F. et al; J. Med. Chem. 2011, 54, 635-654. The tested compounds in aqueous solution were added at a volume of 10 μL to a reaction mixture comprising 10 μL of assay dilution buffer (ADB; 20 mM MOPS, pH 7.2, 25 mM β-glycerol phosphate, 5 mM EGTA, 1 mM sodium orthovanadate, and 1 mM dithiothreitol), 10 μL of substrate peptide (RRRDDDSDDD, dissolved in ADB at a concentration of 1 mM), 10 μL of recombinant human CK2 (RRββ-holoenzyme, 25 ng dissolved in ADB; Millipore). Reactions were initiated by the addition of 10 μL of ATP solution (90% 75 mMMgCl2, 75 μM ATP (final ATP concentration: 15 μM) dissolved in ADB; 10% [γ-33P] ATP (stock 1mCi/100 μL; 3000 Ci/mmol (Perkin-Elmer) and maintained for 10 min at 30° C. The reactions were quenched with 100 μL of 0.75% phosphoric acid and then transferred to and filtered through a phosphor cellulose filter plate (Millipore). After washing each well five times with 0.75% phosphoric acid, the plate was dried under vacuum for 5 min and, following the addition of 15 μL of scintillation fluid to each well, the residual radioactivity was measured using a Wallac […]. The IC50 values were derived from eight concentrations of test inhibitors.

HCT116 (colon) = assay: In vitro cytotoxic activity MTT assay, HCT116; assay type: cell-based; details: Homo sapiens, HCT-116, 96 hours exposure, read-out: IC50, 50% inhibition of cell proliferation
Procedure: as §1

HL60 (leukemia) = assay: In vitro cytotoxic activity MTT assay, HL60; assay type: cell-based; details: Homo sapiens, HL-60, 96 hours exposure, read-out: IC50, 50% inhibition of cell proliferation
Procedure: as §1

H1299 (lung) = assay: In vitro cytotoxic activity MTT assay, H1299; assay type: cell-based; details: Homo sapiens, NCI-H1299, 96 hours exposure, read-out: IC50, 50% inhibition of cell proliferation
Procedure: as §1

MDA-MB-231 (breast) = assay: In vitro cytotoxic activity MTT assay, MDA-MB-231; assay type: cell-based; details: Homo sapiens, 96 hours exposure, read-out: IC50, 50% inhibition of cell proliferation
Procedure: as §1

T1 sequence (P68400 whole entry): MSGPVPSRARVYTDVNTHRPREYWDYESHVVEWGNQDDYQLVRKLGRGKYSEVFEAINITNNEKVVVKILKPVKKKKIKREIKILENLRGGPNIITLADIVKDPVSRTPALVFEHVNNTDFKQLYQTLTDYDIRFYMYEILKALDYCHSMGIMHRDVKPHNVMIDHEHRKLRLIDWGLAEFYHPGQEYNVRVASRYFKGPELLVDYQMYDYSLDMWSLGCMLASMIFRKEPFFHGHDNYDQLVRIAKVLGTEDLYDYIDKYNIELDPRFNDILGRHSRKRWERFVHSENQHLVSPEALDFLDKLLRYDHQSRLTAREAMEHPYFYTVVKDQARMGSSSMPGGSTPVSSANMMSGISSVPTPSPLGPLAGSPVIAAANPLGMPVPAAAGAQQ
T1 sequence (P67870 whole entry partner): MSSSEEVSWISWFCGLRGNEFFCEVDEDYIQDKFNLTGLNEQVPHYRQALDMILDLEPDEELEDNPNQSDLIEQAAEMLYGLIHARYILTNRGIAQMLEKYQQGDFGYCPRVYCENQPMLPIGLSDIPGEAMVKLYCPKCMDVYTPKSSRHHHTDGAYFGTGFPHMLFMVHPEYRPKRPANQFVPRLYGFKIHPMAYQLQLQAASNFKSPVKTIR

## O=C(O)c1cc2c(Nc3cccc(Cl)c3)nc3cnccc3c2[nH]1 [Example 1, 4-((3-chlorophenyl)amino)-1H-pyrrolo[3,2-c][1,7]naphthyridine-2-carboxylic acid]
PC3 (prostate)
  IC50: 2300 nM
MCF7 (breast)
  IC50: 3900 nM
MIAPaCa-2 (pancreas)
  IC50: 1400 nM
A375 (melanoma)
  IC50: 3200 nM
[1]
  IC50: 31 nM
HCT116 (colon)
  IC50: 1100 nM
HL60 (leukemia)
  IC50: 2000 nM
H1299 (lung)
  IC50: 1600 nM
MDA-MB-231 (breast)
  IC50: 3500 nM
